Reference: US10493070B2 (priority 2016, dated 2019)

Tested on: recombinant NL4-3 virus (NLRluc, Renilla luciferase in nef, Gag P373S)
Experiment: HIV cell culture assay (Renilla luciferase reporter virus in MT-2 cells)
Assay type: cell-based
Conditions: Renilla, NL43, read-out: 10% FBS EC50, 10% FBS, class symbols A/B/C
Experimental: MT-2 cells and 293T cells were obtained from the NIH AIDS Research and Reference Reagent Program. MT-2 cells were propagated in RPMI 1640 media supplemented with 10% heat inactivated fetal bovine serum, […]. The 293T cells were propagated in DMEM media supplemented with 10% heat inactivated fetal bovine serum (FBS), 100 units/ml penicillin G and 100 μg/ml streptomycin. The proviral DNA clone of NL4-3 was obtained from the NIH AIDS Research and Reference Reagent Program. A recombinant NL4-3 virus, in which a section of the nef gene from NL4-3 was replaced with the Renilla luciferase gene, was used as a reference virus. In addition, residue Gag P373 was converted to P373S. Briefly, the recombinant virus was prepared by transfection of the altered proviral clone of NL4-3. Transfections were performed in 293T cells using LipofectAMINE PLUS from Invitrogen (Carlsbad, Calif.), according to manufacturer's instruction. The virus was titered in MT-2 cells using luciferase enzyme activity as a marker. Luciferase was quantitated using the Dual Luciferase kit from Promega (Madison, Wis.), with modifications to the manufacturer's protocol. The diluted Passive Lysis solution was pre-mixed with the re-suspended Luciferase Assay Reagent and the re-suspended Stop & Glo Substrate (2:1:1 ratio). Fifty (50) μL of the mixture was added to each aspirated well on assay plates and luciferase activity was measured immediately on a Wallac TriLux (Perkin-Elmer). Antiviral activities of inhibitors toward the recombinant virus were quantified by measuring luciferase activity in cells infected for 4-5 days with NLRluc recombinants in the presence serial dilutions of the inhibitor. Table 16 is the key for the data in Table 17.

`CC1(C)C(c2ccc(C(=O)O)cc2)=CC[C@]2(C)CN(C(=O)c3ccccc3C(=O)N3CCS(=O)(=O)CC3)CC=C12` [Example 67] and `CC1(C)C(c2ccc(C(=O)O)cc2)=CC[C@]2(C)CN(C(=O)c3cccc(C(=O)N4CCS(=O)(=O)CC4)c3)CC=C12` [Example 68] cannot be ordered by EC50: greater than 3000 nM for the first, greater than 3000 nM for the second.

`CC1(C)C(c2ccc(C(=O)O)cc2)=CC[C@]2(C)CN(C(=O)c3ccc(C(=O)N4CCS(=O)(=O)CC4)cc3)CC=C12` [Example 69] and `CC1(C)C(c2ccc(C(=O)O)cc2)=CC[C@]2(C)CN(C(=O)c3cncc(C(=O)NCCCN4CCS(=O)(=O)CC4)c3)CC=C12` [Example 71] cannot be ordered by EC50: greater than 3000 nM for the first, greater than 3000 nM for the second.

`CC1(C)C(c2ccc(C(=O)O)cc2)=CC[C@]2(C)CN(C(=O)c3cccc(C(=O)NCCCN4CCS(=O)(=O)CC4)n3)CC=C12` [Example 70] and `CC1(C)C(c2ccc(C(=O)O)cc2)=CC[C@]2(C)CN(C(=O)c3ccc(C(=O)NCCCN4CCS(=O)(=O)CC4)s3)CC=C12` [Example 72] cannot be ordered by EC50: greater than 3000 nM for the first, greater than 3000 nM for the second.

`CC1(C)C(c2ccc(C(=O)O)cc2)=CC[C@]2(C)CN(C(=O)c3cscc3C(=O)NCCCN3CCS(=O)(=O)CC3)CC=C12` [Example 73] and `CC1(C)C(c2ccc(C(=O)O)cc2)=CC[C@]2(C)CN(CCN3CCS(=O)(=O)CC3)CC=C12` [Example 79] cannot be ordered by EC50: greater than 3000 nM for the first, greater than 3000 nM for the second.

`CC1(C)C(c2ccc(C(=O)O)cc2)=CC[C@]2(C)CN(c3ncc(Br)s3)CC=C12` [Example 77] and `Cc1nn(-c2ccccc2)nc1C(=O)N1CC=C2C(C)(C)C(c3ccc(C(=O)O)cc3)=CC[C@]2(C)C1` [Example A40] cannot be ordered by EC50: greater than 3000 nM for the first, greater than 3000 nM for the second.

First: CC1(C)C(c2ccc(C(=O)O)cc2)=CC[C@]2(C)CN(C(=O)c3ccccc3-c3nc4ccccc4n3CCN3CCS(=O)(=O)CC3)CC=C12 [Example 81]
Second: Cc1ccc2nc(-c3ccccc3C(=O)N3CC=C4C(C)(C)C(c5ccc(C(=O)O)cc5)=CC[C@]4(C)C3)[nH]c2c1C [Example 98]
The EC50 of the first is higher: 500 to 3000 nM for the first, less than 500 nM for the second.

`CC(C)(C)OC(=O)N1CCN(c2ccccc2C(=O)N2CCC3C(C)(C)C(c4ccc(C(=O)O)cc4)CC[C@]3(C)C2)CC1` (stereo partly drawn) [Example 83, 4-((8aS)-2-(2-(4-(tert-butoxycarbonyl)piperazin-1-yl)benzoyl)-5,5,8a-trimethyldecahydroisoquinolin-6-yl)benzoic acid] and `CC(C)C[C@@H](NC(=O)OC(C)(C)C)C(=O)N1CCC(C(=O)N2CC[C@H]3C(C)(C)[C@@H](c4ccc(C(=O)O)cc4)CC[C@]3(C)C2)(c2ccccc2)CC1` [Example 86] cannot be ordered by EC50: less than 500 nM for the first, less than 500 nM for the second.

Compared with `CC1(C)C2CCN(C(=O)c3ccccc3-c3nc4ccccc4[nH]3)C[C@@]2(C)CC[C@@H]1c1ccc(C(=O)O)cc1` (some centres unmarked) [Example 85], `CC1(C)C(c2ccc(C(=O)O)cc2)=CC[C@]2(C)CN(C(=O)C3(c4ccccc4F)CCCC3)CC=C12` [Example A1] is higher in EC50: less than 500 nM for the first, greater than 3000 nM for the second. The first is the more potent here.

`CC(C)C[C@@H](NC(=O)OC(C)(C)C)C(=O)N1CCC(C(=O)N2CC=C3C(C)(C)[C@@H](c4ccc(C(=O)O)cc4)CC[C@]3(C)C2)(c2ccccc2)CC1` [Example 88] and `CC(C)C[C@H](NC(=O)OC(C)(C)C)C(=O)N1CCC(C(=O)N2CC=C3C(C)(C)C(c4ccc(C(=O)O)cc4)=CC[C@]3(C)C2)(c2ccccc2)CC1` [Example 93] cannot be ordered by EC50: less than 500 nM for the first, less than 500 nM for the second.

Same assay, conditions: Renilla, NL43, read-out: 10% FBS EC50, 10% FBS, numeric values

Point of comparison: `CC1(C)C(c2ccc(C(=O)O)cc2)=CC[C@]2(C)CN(c3ncnc(NCCCN4CCS(=O)(=O)CC4)n3)CC=C12` [Example 74, (S)-4-(2-(4-((3-(1,1-dioxidothiomorpholino)propyl)amino)-1,3,5-triazin-2-yl)-5,5,8a-trimethyl-1,2,3,5,8,8a-hexahydroisoquinolin-6-yl)benzoic acid], EC50 340 nM. Against it:
- CC1(C)C(c2ccc(C(=O)O)cc2)=CC[C@]2(C)CN(c3ncnc(N4CC=C5C(C)(C)C(c6ccc(C(=O)O)cc6)=CC[C@]5(C)C4)n3)CC=C12 [Example 75] — 1.8-fold lower, 190 nM
- CC1(C)C(c2ccc(C(=O)O)cc2)=CC[C@]2(C)CN(c3cccc(Br)n3)CC=C12 [Example 76] — 2.9-fold higher, 980 nM
- CC1(C)C(c2ccc(C(=O)O)cc2)=CC[C@]2(C)CN(c3nc4ccccc4s3)CC=C12 [Example 80] — 1.9-fold lower, 179 nM
- CC(C)(C)OC(=O)N1CCC(C(=O)N2CCC3C(C)(C)[C@@H](c4ccc(C(=O)O)cc4)CC[C@]3(C)C2)(c2ccccc2)CC1 (some centres unmarked) [Example 84] — 6.8-fold lower, 50 nM
- CC(C)C[C@H](NC(=O)OC(C)(C)C)C(=O)N1CCC(C(=O)N2CC[C@H]3C(C)(C)[C@@H](c4ccc(C(=O)O)cc4)CC[C@]3(C)C2)(c2ccccc2)CC1 [Example 87] — 3.4-fold lower, 101 nM
- CC(C)C[C@H](NC(=O)OC(C)(C)C)C(=O)N1CCC(C(=O)N2CC=C3C(C)(C)[C@@H](c4ccc(C(=O)O)cc4)CC[C@]3(C)C2)(c2ccccc2)CC1 [Example 89] — 5.1-fold lower, 67 nM
- CC(C)C[C@@H](NC(=O)OC(C)(C)C)C(=O)N1CCC(C(=O)N2CC=C3C(C)(C)C(c4ccc(C(=O)O)cc4)=CC[C@]3(C)C2)(c2ccccc2)CC1 [Example 92, 4-((S)-2-(1-((tert-butoxycarbonyl)-D-leucyl)-4-phenylpiperidine-4-carbonyl)-5,5,8a-trimethyl-1,2,3,5,8,8a-hexahydroisoquinolin-6-yl)benzoic acid] — 42-fold lower, 8 nM
- CC1(C)C(c2ccc(C(=O)O)cc2)=CC[C@]2(C)CN(C(=O)C3(c4ccccc4)CCN(C(=O)CN4CCS(=O)(=O)CC4)CC3)CC=C12 [Example 94] — 4-fold higher, 1370 nM
- CC1(C)C(c2ccc(C(=O)O)cc2)=CC[C@]2(C)CN(C(=O)C3(c4ccccc4)CCN(C(=O)CCN4CCS(=O)(=O)CC4)CC3)CC=C12 [Example 95] — 7.9-fold higher, 2700 nM
- CC1(C)C(c2ccc(C(=O)O)cc2)=CC[C@]2(C)CN(C(=O)C3(c4ccccc4)CCN(CCN4CCS(=O)(=O)CC4)CC3)CC=C12 [Example 96, (S)-4-(2-(1-(2-(1,1-dioxidothiomorpholino)ethyl)-4-phenylpiperidine-4-carbonyl)-5,5,8a-trimethyl-1,2,3,5,8,8a-hexahydroisoquinolin-6-yl)benzoic acid] — 4-fold higher, 1350 nM
- Cc1cc2nc(-c3ccccc3C(=O)N3CC=C4C(C)(C)C(c5ccc(C(=O)O)cc5)=CC[C@]4(C)C3)[nH]c2cc1C [Example 97, (S)-4-(2-(2-(5,6-dimethyl-1H-benzo[d]imidazol-2-yl)benzoyl)-5,5,8a-trimethyl-1,2,3,5,8,8a-hexahydroisoquinolin-6-yl)benzoic acid] — 6.7-fold lower, 51 nM
- CC1(C)C(c2ccc(C(=O)O)cc2)=CC[C@]2(C)CN(C(=O)c3ccccc3-c3nc4cc(Br)c(Br)cc4[nH]3)CC=C12 [Example 99, (S)-4-(2-(2-(5,6-dibromo-1H-benzo[d]imidazol-2-yl)benzoyl)-5,5,8a-trimethyl-1,2,3,5,8,8a-hexahydroisoquinolin-6-yl)benzoic acid] — 21-fold lower, 16 nM
- CN1Cc2c(ccc3nc(-c4ccccc4C(=O)N4CC=C5C(C)(C)C(c6ccc(C(=O)O)cc6)=CC[C@]5(C)C4)[nH]c23)C(c2ccccc2)C1 (some centres unmarked) [Example 100] — 8.3-fold higher, 2810 nM
- CC1(C)C(c2ccc(C(=O)O)cc2)=CC[C@@]2(C)CN(C(=O)c3cccc4c3C(=O)c3ccccc3-4)CC=C12 [Example A30] — 3.2-fold higher, 1080 nM
- CC(C)[C@H]1CC[C@H](C)C[C@@H]1OC(=O)c1ccccc1C(=O)N1CC=C2C(C)(C)C(c3ccc(C(=O)O)cc3)=CC[C@]2(C)C1 [Example A36] — within 1.5-fold, 380 nM

Same assay, conditions: read-out: 10% FBS EC50, 10% FBS, numeric values

`CN1Cc2c(ccc3nc(-c4ccccc4C(=O)N4CC=C5C(C)(C)C(c6ccc(C(=O)O)cc6)=CC[C@]5(C)C4)[nH]c23)C(c2ccccc2)C1` (some centres unmarked) [Example 101] showed an EC50 of 2980 nM.
